Consider 16 molecules from ChEMBL document CHEMBL5576037, “Discovery of the first ataxia telangiectasia and Rad3-related (ATR) degraders for cancer treatment” (Eur J Med Chem, 2024).

Structures are written as SMILES. Active and inactive are the calls of the source. No cut-off for these calls is given here.

In one assay the test system is HCT-116. Kind of assay: Antiproliferative activity against human HCT-116 cells expressing wildtype ATM incubated for 72 hrs by CCK8 assay. The class given is functional, cell-based. Particulars: HCT-116, 72 h. (Tetrazolium assays rely on reduction of a dye to a coloured formazan, in cell work by metabolically active cells.)
Assay [1] deals with LoVo. Kind of assay: Antiproliferative activity against ATM deficient human LoVo cells incubated for 72 hrs by CCK8 assay. The class given is functional, cell-based.
Assay [2] has as its system LoVo. The assay is described as follows: Induction of DNA damage in human LoVo cells assessed as increase in gammaH2AX expression at 1 uM incubated for 72 hrs by DAPI staining based immunofluorescence analysis. The class given is functional, cell-based.
Assay [3] relates to LoVo. The assay is described as follows: Cell cycle arrest in human LoVo cells assessed as accumulation of cells at S phase at 1 uM incubated for 72 hrs by PI staining based flow cytometric analysis (reference value: 25.5 %). The class given is functional.
Assay [4] concerns LoVo. The assay is described as follows: Cell cycle arrest in human LoVo cells assessed as accumulation of cells at G2/M phase at 1 uM incubated for 72 hrs by PI staining based flow cytometric analysis (reference value: 22.2 %). The class given is functional. On the technique in general: A flow cytometer gives signals particle by particle.
The test system of assay [5] is LoVo. Kind of assay: Induction of apoptosis in human LoVo cells assessed as apoptotic rate at 1 uM incubated for 48 hrs by Annexin V-FITC/PI staining based flow cytometric analysis (reference value: 5.32 %). It is filed as functional.
Assay [6] has as its system LoVo. Kind of assay: Synergistic antitumor activity against human LoVo cells xenografted in BALB/c nude mouse assessed as tumor growth inhibition at 12.5 mg/kg, po administered once daily for 15 days in presence of cisplatin relative to control. It is filed as functional. Conditions: 360 h, time 15 day, read-out: TGI.
Assay [7] deals with LoVo. Kind of assay: Cell cycle arrest in human LoVo cells assessed as accumulation of cells at G0/G1 phase at 1 uM incubated for 72 hrs by PI staining based flow cytometric analysis (reference value: 52.3 %). The class given is functional.
Assay [8] addresses Protein cereblon/Serine/threonine-protein kinase ATR (Homo sapiens, UniProt Q13535+Q96SW2). Kind of assay: PROTAC activity at CRBN/ATR in human LoVo cells assessed as induction of ATR degradation. It is filed as cell-based.
Assay [9] in a line: Selectivity ratio for inhibition of ATM (unknown origin) to inhibition of ATR (unknown origin).
The target of assay [10] is Serine/threonine-protein kinase ATR (Homo sapiens, UniProt Q13535). The assay is described as follows: Inhibition of ATR (unknown origin).
The nature of assay [11]: Selectivity ratio for inhibition of PI3K (unknown origin) to inhibition of ATR (unknown origin).

Chain of Protein cereblon/Serine/threonine-protein kinase ATR (Q13535 whole entry, looked up): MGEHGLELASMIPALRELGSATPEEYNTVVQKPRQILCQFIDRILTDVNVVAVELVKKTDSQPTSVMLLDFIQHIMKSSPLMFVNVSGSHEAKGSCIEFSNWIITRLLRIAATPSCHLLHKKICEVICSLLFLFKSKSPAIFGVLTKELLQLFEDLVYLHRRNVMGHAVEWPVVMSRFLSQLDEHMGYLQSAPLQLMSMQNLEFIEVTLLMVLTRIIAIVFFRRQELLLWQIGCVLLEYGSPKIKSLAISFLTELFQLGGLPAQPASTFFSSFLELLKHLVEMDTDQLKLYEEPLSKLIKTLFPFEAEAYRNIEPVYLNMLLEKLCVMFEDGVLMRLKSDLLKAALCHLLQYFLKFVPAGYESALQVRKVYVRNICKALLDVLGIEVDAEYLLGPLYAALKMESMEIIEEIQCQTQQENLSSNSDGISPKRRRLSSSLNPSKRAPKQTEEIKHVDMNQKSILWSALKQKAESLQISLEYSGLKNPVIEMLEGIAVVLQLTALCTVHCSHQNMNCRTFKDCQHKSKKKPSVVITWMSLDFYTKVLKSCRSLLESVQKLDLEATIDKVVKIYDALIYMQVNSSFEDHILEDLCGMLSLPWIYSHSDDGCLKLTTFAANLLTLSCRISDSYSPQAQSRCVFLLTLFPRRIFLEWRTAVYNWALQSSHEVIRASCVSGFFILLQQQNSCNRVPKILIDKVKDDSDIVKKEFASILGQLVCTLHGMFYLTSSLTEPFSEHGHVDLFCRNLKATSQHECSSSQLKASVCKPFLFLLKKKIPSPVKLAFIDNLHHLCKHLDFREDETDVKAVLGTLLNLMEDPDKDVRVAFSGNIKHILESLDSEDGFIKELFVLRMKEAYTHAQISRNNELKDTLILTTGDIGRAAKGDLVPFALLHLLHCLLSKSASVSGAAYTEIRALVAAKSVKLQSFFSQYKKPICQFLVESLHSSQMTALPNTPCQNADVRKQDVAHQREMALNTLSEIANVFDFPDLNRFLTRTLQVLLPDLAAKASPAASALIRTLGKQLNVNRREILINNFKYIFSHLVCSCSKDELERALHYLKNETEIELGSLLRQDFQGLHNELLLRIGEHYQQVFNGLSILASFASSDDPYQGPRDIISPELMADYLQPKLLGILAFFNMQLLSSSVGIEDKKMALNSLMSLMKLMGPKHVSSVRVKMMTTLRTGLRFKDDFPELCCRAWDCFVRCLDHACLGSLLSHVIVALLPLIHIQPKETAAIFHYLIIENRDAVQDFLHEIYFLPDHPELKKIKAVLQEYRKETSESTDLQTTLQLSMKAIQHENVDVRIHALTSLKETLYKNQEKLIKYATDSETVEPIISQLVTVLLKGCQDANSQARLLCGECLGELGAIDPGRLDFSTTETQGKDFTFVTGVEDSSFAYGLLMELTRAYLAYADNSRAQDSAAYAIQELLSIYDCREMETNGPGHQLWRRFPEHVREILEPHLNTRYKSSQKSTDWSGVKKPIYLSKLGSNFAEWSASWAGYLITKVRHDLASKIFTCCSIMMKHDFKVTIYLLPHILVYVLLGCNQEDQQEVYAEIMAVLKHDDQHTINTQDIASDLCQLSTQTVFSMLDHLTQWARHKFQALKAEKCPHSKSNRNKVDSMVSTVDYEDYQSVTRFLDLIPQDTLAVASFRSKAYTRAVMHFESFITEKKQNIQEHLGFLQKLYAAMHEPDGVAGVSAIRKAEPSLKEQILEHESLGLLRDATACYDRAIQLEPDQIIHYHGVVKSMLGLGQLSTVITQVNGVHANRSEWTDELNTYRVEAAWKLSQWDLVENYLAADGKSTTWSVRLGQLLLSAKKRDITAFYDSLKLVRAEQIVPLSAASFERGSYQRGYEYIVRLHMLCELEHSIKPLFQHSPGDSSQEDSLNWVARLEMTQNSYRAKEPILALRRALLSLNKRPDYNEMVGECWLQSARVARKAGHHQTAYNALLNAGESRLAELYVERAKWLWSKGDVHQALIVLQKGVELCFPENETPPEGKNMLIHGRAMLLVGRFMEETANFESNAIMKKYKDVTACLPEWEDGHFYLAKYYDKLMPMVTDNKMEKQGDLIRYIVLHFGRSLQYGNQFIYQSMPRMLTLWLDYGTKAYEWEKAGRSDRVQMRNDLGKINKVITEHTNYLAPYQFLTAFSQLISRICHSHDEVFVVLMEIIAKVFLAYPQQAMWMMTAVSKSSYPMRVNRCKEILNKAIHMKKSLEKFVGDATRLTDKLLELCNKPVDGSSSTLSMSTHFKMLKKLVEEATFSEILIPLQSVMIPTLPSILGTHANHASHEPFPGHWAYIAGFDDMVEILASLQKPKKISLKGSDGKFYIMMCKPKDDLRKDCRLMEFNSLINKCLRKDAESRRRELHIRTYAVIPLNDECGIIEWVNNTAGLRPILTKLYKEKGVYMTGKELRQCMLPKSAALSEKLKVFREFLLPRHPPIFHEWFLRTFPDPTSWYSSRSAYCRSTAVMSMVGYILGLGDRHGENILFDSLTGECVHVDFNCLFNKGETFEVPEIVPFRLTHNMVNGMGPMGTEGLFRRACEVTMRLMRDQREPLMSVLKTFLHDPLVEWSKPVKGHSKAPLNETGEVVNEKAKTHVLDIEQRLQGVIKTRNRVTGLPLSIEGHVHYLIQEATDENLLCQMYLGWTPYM
Chain of Protein cereblon/Serine/threonine-protein kinase ATR (Q96SW2 whole entry, looked up): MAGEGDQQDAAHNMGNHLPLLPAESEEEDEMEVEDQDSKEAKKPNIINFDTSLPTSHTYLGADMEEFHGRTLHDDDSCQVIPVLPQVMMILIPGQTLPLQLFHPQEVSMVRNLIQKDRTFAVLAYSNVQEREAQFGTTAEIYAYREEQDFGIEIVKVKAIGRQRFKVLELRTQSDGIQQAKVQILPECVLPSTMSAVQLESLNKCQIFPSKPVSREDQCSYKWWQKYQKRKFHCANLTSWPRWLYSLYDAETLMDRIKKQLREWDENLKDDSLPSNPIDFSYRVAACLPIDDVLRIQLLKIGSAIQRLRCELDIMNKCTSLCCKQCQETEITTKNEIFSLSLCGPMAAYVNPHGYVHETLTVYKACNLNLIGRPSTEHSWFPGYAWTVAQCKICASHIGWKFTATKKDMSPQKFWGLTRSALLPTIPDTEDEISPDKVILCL
Chain of Serine/threonine-protein kinase ATR (Q13535 whole entry): as the sequence (Q13535 whole entry, looked up) above

On to `C[C@@H]1COCCN1c1cc(C2([S@@](C)(=O)=NC(=O)CCc3cn(CCCCCC(=O)Nc4cccc5c4C(=O)N(C4CCC(=O)NC4=O)C5=O)nn3)CC2)nc(-c2ccnc3[nH]ccc23)n1` (stereo not given in full), for which the IC50 is greater than 50 µM in the assay on HCT-116 and 23.3 µM in the assay on LoVo [1].

In the case of `C[C@@H]1COCCN1c1cc(C2([S@@](C)(=O)=NC(=O)CCc3cn(CCCCCCCCCC(=O)Nc4cccc5c4C(=O)N(C4CCC(=O)NC4=O)C5=O)nn3)CC2)nc(-c2ccnc3[nH]ccc23)n1` (stereo not given in full), the IC50 in the assay with HCT-116 was greater than 50 µM; in the assay on LoVo [1], 21.2 µM.

For the molecule `C[C@@H]1COCCN1c1cc(C2([S@@](C)(=O)=NC(=O)CCc3cn(CCCCCCCCCCC(=O)Nc4cccc5c4C(=O)N(C4CCC(=O)NC4=O)C5=O)nn3)CC2)nc(-c2ccnc3[nH]ccc23)n1` (stereo not given in full), the half-inhibitory concentration (IC50) in the assay on HCT-116 was greater than 50 µM; with LoVo [1] it was 16.4 µM.

As to `C[C@@H]1COCCN1c1cc(C2([S@@](C)(=O)=NC(=O)CCc3cn(CCCCC(=O)Nc4cccc5c4C(=O)N(C4CCC(=O)NC4=O)C5=O)nn3)CC2)nc(-c2ccnc3[nH]ccc23)n1` (stereo not given in full), the results for the IC50 in the assay on HCT-116 and in the assay on LoVo [1] were greater than 50 µM and 28.4 µM, respectively.

`C[C@@H]1COCCN1c1cc(C2([S@@](C)(=O)=NC(=O)CCc3cn(CCCCCCC(=O)Nc4cccc5c4C(=O)N(C4CCC(=O)NC4=O)C5=O)nn3)CC2)nc(-c2ccnc3[nH]ccc23)n1` (stereo not given in full): the IC50 with HCT-116 was greater than 50 µM; with LoVo [1], 20 µM.

As to `Cc1ncsc1-c1ccc(CNC(=O)[C@@H]2C[C@@H](O)CN2C(=O)[C@@H](N)C(C)(C)C)cc1`, the IC50 in the assay on HCT-116 and in the assay on LoVo [1] was greater than 50 µM in each case.

For the molecule `Cc1ncsc1-c1ccc(CNC(=O)[C@@H]2C[C@@H](O)CN2C(=O)[C@@H](NC(=O)CCCCn2cc(CCC(=O)N=[S@](C)(=O)C3(c4cc(N5CCOC[C@H]5C)nc(-c5ccnc6[nH]ccc56)n4)CC3)nn2)C(C)(C)C)cc1`, the IC50 with HCT-116 and with LoVo [1] was greater than 50 µM in each case.

With `C[C@@H]1COCCN1c1cc(C2([S@](C)(=N)=O)CC2)nc(-c2cc[nH]c3nccc2-3)n1` [CERALASERTIB], the outcome in the assay with LoVo [2] was Active. The Activity in the assay with LoVo [3] is 16.7%; in the assay with LoVo [4], 11.5%; with LoVo [5], 42%; in the assay on LoVo [7], 71.8%. Also, the half-maximal inhibitory concentration (IC50) in the assay with HCT-116 is 3.62 µM; in the assay with LoVo [1], 0.83 µM. In addition, in the assay on LoVo [6], the inhibition in vivo at 12.5 mg/kg was found to be 52.7%.

On to `Nc1cccc2c1C(=O)N(C1CCC(=O)NC1=O)C2=O` (stereo not given) [POMALIDOMIDE], for which the IC50 in the assay on HCT-116 and in the assay with LoVo [1] was greater than 50 µM throughout.

For the molecule `Cc1ncsc1-c1ccc(CNC(=O)[C@@H]2C[C@@H](O)CN2C(=O)[C@@H](NC(=O)CCCCCCCn2cc(CCC(=O)N=[S@](C)(=O)C3(c4cc(N5CCOC[C@H]5C)nc(-c5ccnc6[nH]ccc56)n4)CC3)nn2)C(C)(C)C)cc1`, the IC50 with HCT-116 and in the assay with LoVo [1] was greater than 50 µM throughout.

Regarding `Cc1ncsc1-c1ccc(CNC(=O)[C@@H]2C[C@@H](O)CN2C(=O)[C@@H](NC(=O)CCCCCCCCCCn2cc(CCC(=O)N=[S@](C)(=O)C3(c4cc(N5CCOC[C@H]5C)nc(-c5ccnc6[nH]ccc56)n4)CC3)nn2)C(C)(C)C)cc1`, the 50% inhibitory concentration (IC50) in the assay on HCT-116 and in the assay with LoVo [1] was greater than 50 µM each time.

On to `C[C@@H]1COCCN1c1cc(C2([S@@](C)(=O)=NC(=O)CCc3cn(CCOCCOCC(=O)Nc4cccc5c4C(=O)N(C4CCC(=O)NC4=O)C5=O)nn3)CC2)nc(-c2ccnc3[nH]ccc23)n1` (stereo not given in full), for which the concentration for half-maximal inhibition (IC50) in the assay on HCT-116 was greater than 50 µM; with LoVo [1], 26.7 µM.

As for `CCN1C(=O)CCC(N2C(=O)c3cccc(NC(=O)CCCCCCCCCn4cc(CCC(=O)N=[S@](C)(=O)C5(c6cc(N7CCOC[C@H]7C)nc(-c7ccnc8[nH]ccc78)n6)CC5)nn4)c3C2=O)C1=O` (stereo not given in full), the IC50 with HCT-116 and in the assay with LoVo [1] was greater than 50 µM throughout. In assay [8], the outcome was inactive.

Regarding `Nc1nn2cc(F)cnc2c1C(=O)Nc1cncc(F)c1N1CCC(C(=O)N2CCN(C3COC3)CC2)CC1` [M4344], the Selectivity ratio in [9] and in assay [11] was greater than 50 in each case. This molecule also showed an IC50 in [10] of 0.15 nM.

On to `C[C@@H]1COCCN1c1cc(C2([S@@](C)(=O)=NC(=O)CCc3cn(CCCCCCCCC(=O)Nc4cccc5c4C(=O)N(C4CCC(=O)NC4=O)C5=O)nn3)CC2)nc(-c2ccnc3[nH]ccc23)n1` (stereo not given in full), for which the IC50 in the assay on HCT-116 was greater than 50 µM; in the assay with LoVo [1], 32.4 µM.

`C[C@@H]1COCCN1c1cc(C2([S@@](C)(=O)=NC(=O)CCc3cn(CCOCCOCCOCC(=O)Nc4cccc5c4C(=O)N(C4CCC(=O)NC4=O)C5=O)nn3)CC2)nc(-c2ccnc3[nH]ccc23)n1` (stereo not given in full): the IC50 in the assay with HCT-116 and with LoVo [1] was greater than 50 µM each time.

A word on the IC50: it is the midpoint of a concentration-inhibition curve.
